Measurements from patent publication US8450400B2, “Polypropylene resin composition and molded article made thereof” (Sumitomo Chemical Company, Limited, priority 2007, dated 2013).

Assay: Weight loss rate by thermogravimetric analysis (TG-DTA) to 300° C. under nitrogen
Format: physicochemical
Settings: room temperature to 300° C. at 10° C./min, nitrogen gas atmosphere (100 ml/min)
Description: Regarding requirement (c), from the viewpoint of the staining of a mold, the emitted amount of VOC, and the weather resistance, the weight loss rate measured in a thermogravimetric analysis at a temperature of 300° C. under a nitrogen gas atmosphere preferably is less than 5% by weight, and more preferably is less than 3% by weight. The weight loss rate measured by the thermogravimetric analysis of a hindered amine light stabilizer (D) to be used for the present invention is a value determined by using a thermo gravimetry differential thermal analyzer (TG-DTA). Described concretely, it is a weight loss rate determined using a thermobalance when the temperature of a hindered amine light stabilizer (D) is increased from room temperature to 300° C. at a rate of 10° C. per minute under a nitrogen gas atmosphere (in a nitrogen flow at a flow rate of 100 ml/min).
From the viewpoint of inhibiting mold staining, the weight loss rate of the nonionic antistatic agent (E) to be used for the present invention measured by thermogravimetric analysis executed at a temperature of 300° C. under a nitrogen atmosphere preferably is less than 20% by weight, and more preferably 5 to 15% by weight. The weight loss rate is determined by the use of a thermo gravimetry differential thermal analyzer (TG-DTA). Described concretely, it is a weight loss rate determined using a thermobalance when the temperature of the nonionic antistatic agent (E) is increased from room temperature to 300° C. at a rate of 10° C. per minute under a nitrogen gas atmosphere (in a nitrogen flow at a flow rate of 100 ml/min).
The weight loss by thermogravimetric analysis (TG-DTA) of a light stabilizer was measured with a thermo gravimetry differential thermal analyzer from room temperature to 300° C. at a temperature increasing rate of 10° C./min under a nitrogen gas atmosphere (gas flow rate: 100 ml/min). […]

Row | Weight loss rate by TG-DTA | Compound
1 | 19.6 % by weight | CC1(C)CC(OC(=O)CCCCCCCCC(=O)OC2CC(C)(C)NC(C)(C)C2)CC(C)(C)N1 [Example D-2, Bis(2,2,6,6-tetramethyl-4-piperidyl) sebacate]
2 | 31.6 % by weight | CC(C)(C)c1ccc(OC(=O)c2cc(C(C)(C)C)c(O)c(C(C)(C)C)c2)c(C(C)(C)C)c1 [Example D-3, 2,4-di-tert-butylphenyl 3,5-di-tert-butyl-4-hydroxybenzoate]
3 | 23.8 % by weight | Stearic acid monoglyceride [Example E-1]
